Measurements from PubChem BioAssay (NCI).
“And” between values parts separate entries of the source, which are not always exact repeats. Equal values may be shown once.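 A five-concentration, 48-hour dose response in 96-well plates underlies each endpoint, interpolated linearly between surrounding concentrations. GI50 is the concentration that inhibits growth by half. At the TGI there is no net growth.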

Assays:
Assay in all cases: NCI anticancer screen, dose series, 48 h
[1] = test system: MDA-MB-435
[2] = test system: NCI-H522 lung
[3] = test system: OVCAR-5 ovarian
[4] = test system: PC-3 prostate
[5] = test system: RPMI-8226 leukemia
[6] = test system: RXF 393 renal
[7] = test system: SK-MEL-28 melanoma
[8] = test system: SNB-19 CNS
[9] = test system: SNB-75 CNS
[10] = test system: TK-10 renal
[11] = test system: UACC-62 melanoma

Row | SMILES | TGI [1] | TGI [2] | TGI [3] | TGI [4] | TGI [5] | TGI [6] | TGI [7] | TGI [8] | TGI [9] | TGI [10] | TGI [11] | GI50 [1] | GI50 [2] | GI50 [3] | GI50 [6] | GI50 [7] | GI50 [8] | GI50 [10]
1 | O=C1C2CC[C@@H]3C(=O)C(Cl)(Cl)[C@@H]3CCC2C1(Cl)Cl (some centres not stated) | > 100 µM | > 100 µM | > 100 µM | > 100 µM | > 100 µM | > 100 µM | > 100 µM | > 100 µM | > 100 µM | > 100 µM | > 100 µM |  |  |  |  |  |  | 
2 | O=C1c2ccccc2C(=O)c2sc(Nc3cc(Cl)ccc3Cl)nc21 | 3.85 µM | 18.3 µM | 45.6 µM | 18.5 µM | 22.6 µM | 39.3 µM | 27.3 µM | 37.9 µM | 38.2 µM | 29.4 µM | 6.27 µM |  |  |  |  |  |  | 
3 | CSc1nc(C)c2c(n1)N(c1ccc(Cl)cc1)CC2 | > 100 µM | > 100 µM | > 100 µM | > 100 µM | > 100 µM | > 100 µM | > 100 µM | > 100 µM | 38.8 µM | > 100 µM | > 100 µM |  |  |  |  |  |  | 
4 | CC(C)[C@@H]1NC(=O)[C@@H]2N=C(O[C@H]2C)[C@H](C(C)C)NC(=O)C2N=C1O[C@H]2C | > 100 µM | > 100 µM | > 100 µM | > 100 µM | > 100 µM | > 100 µM | > 100 µM | > 100 µM | > 100 µM | > 100 µM | > 100 µM |  |  |  |  |  |  | 
5 | CC(NNC(=O)c1ccncc1)c1ccc(Cl)cc1Cl (configuration not stated) | > 100 µM | > 100 µM | > 100 µM | > 100 µM | > 100 µM | > 100 µM | > 100 µM | > 100 µM | > 100 µM | > 100 µM | > 100 µM |  |  |  |  |  |  | 
6 | CCc1cc2c(c3c1CCCC3=O)CC1(C2)Cc2cc(CC)c3c(c2C1)C(=O)CCC3 | > 100 µM | > 100 µM | > 100 µM | > 100 µM | > 100 µM | > 100 µM | > 100 µM | > 100 µM | > 100 µM | > 100 µM |  |  |  |  |  |  |  | 
7 | CC[C@@]1(O)C(=O)OCc2c1cc1n(c2=O)Cc2c-1nc1ccccc1c2C=Nc1ccccc1N[C@@H]1c2cc3c(cc2[C@@H](c2cc(OC)c(O)c(OC)c2)[C@H]2C(=O)OC[C@@H]21)OCO3 | 24.3 µM and > 50 µM |  |  | > 65.8 µM | > 50 µM | 5.02 µM and 0.54 µM | 35 µM and > 50 µM | > 52.5 µM | 5.48 µM and 0.647 µM |  | 13.1 µM | 0.358 µM and 0.45 µM | 0.072 µM and 0.192 µM | 0.847 µM and 0.281 µM | 0.317 µM and 0.0619 µM | 11.4 µM and 1.17 µM | 0.0869 µM and 0.0336 µM | 3.49 µM and 0.549 µM
8 | O=C(O)CCC1NC(/C(=C/c2ccccc2O)NC(=O)c2ccccc2)OC1=O (configuration not stated) | > 100 µM | > 100 µM | > 100 µM | > 100 µM | > 100 µM | > 100 µM | > 100 µM | > 100 µM | 72.4 µM | > 100 µM | > 100 µM |  |  |  |  |  |  | 
9 | CC[C@@]12CCC(=S)N(CCSc3ccccc3)[C@@H]1c1c(n(S(=O)(=O)c3ccc(OC)cc3)c3ccccc13)CC2 | > 100 µM | > 100 µM | > 100 µM | > 100 µM | > 100 µM | > 100 µM | > 100 µM | > 100 µM | > 100 µM | > 100 µM | > 100 µM |  |  |  |  |  |  | 
